Measured values published in patent publication US5041579A, “Platinum complexes and uses therewith” (Ajinomoto Co., Inc., priority 1987, dated 1991).

Key:
L1210 cells [1] = assay: Growth inhibition of L1210 cells ([3H]-thymidine uptake); type: cell-based, mouse; details: 46 h incubation plus 2 h with [3H]-thymidine, 37° C.
Description: (§1) L1210 cells and cisplatin-resistant L1210 cells under subcultivation were incubated in RPMI1640 medium containing 10% fetal bovine serum at 37° C. for 46 hours in an atmosphere containing 5% carbon dioxide. [^3 H]-thymidine was added to the grown cells, and incubation was continued for an additional two hours. The growth inhibition rate of a drug was calculated from the amounts of [^3 H]-thymidine taken into the cells in the presence and absence of that drug, and the 50% growth inhibition concentration (IC50) was determined from the graph of inhibition rate plotted against drug concentration. The degree of drug resistance was calculated from the ratio of IC50 for cisplatin-resistant L1210 cells to that for L1210 cells.

[2] = Solubility in physiological saline; type: physicochemical
L1210 cells [3] = assay: Anti-tumor activity testing 2: life-prolonging rate in mice transplanted intraperitoneally with L1210 cells; type: in vivo, Female BDF1 mice; details: days 1, 5 and 9
Description: Female BDF1 mice of 5-week age were used as test animals (five head for each group).
L1210 cells (1×10^5) were intraperitoneally transplanted to each of the test animals, each of the Pt(II) complexes listed in Table 2 was then injected intraperitoneally one day, five days and nine days after transplantation (a total of three times), and the life-prolonging rate was measured for each test group. Physiologically saline was used as the solvent of injections.

Sarcoma-180 cells = assay: Anti-tumor activity testing 1: life-prolonging rate in mice transplanted intraperitoneally with Sarcoma-180 cells; type: in vivo, Female ICR/CRJ mice; details: day after transplantation
Description: Female ICR/CRJ mice of 5-week age were used as test animals (five head for each group).
Sarcoma-180 cells (1×10^6) were intraperitoneally transplanted to each of the test animals, each of the Pt(II) complexes listed in Table 1 was then injected intraperitoneally on the next day, and the life-prolonging rate was measured for each test group. Physiologically saline was used as the solvent of injections.

[4] = system: cisplatin-resistant L1210 cells; assay: Growth inhibition of cisplatin-resistant L1210 cells ([3H]-thymidine uptake); type: cell-based, mouse; details: for IC50: 46 h incubation plus 2 h with [3H]-thymidine, 37° C.; for Degree of Resistance: ratio of IC50 for cisplatin-resistant L1210 cells to that for L1210 cells, 2880 min
Description: as §1

Colon 38 cells [5] = assay: Anti-tumor activity testing 3: tumor-growth inhibition of subcutaneous Colon 38, intraperitoneal injection; type: in vivo, female BDF mice; details: days 1, 8 and 15, 21 days after transplantation
Description: female BDF mice of 5-week age were used as test animals (five head for each group).
Colon 38 cells (40 mg) were subcutaneously transplanted to each of the test animals at the haunch, each of the Pt(II) complexes listed in Table 3 was then injected intraperitoneally 1 day, 8 days and 15 days after transplantation (a total of three times), and the tumor-growth inhibition rate was measured for each test group 21 days after transplantation.

Colon 38 cells [6] = assay: Anti-tumor activity testing 4: tumor-growth inhibition of subcutaneous Colon 38, intravenous injection; type: in vivo, Female BDF mice; details: 21 days after transplantation
Description: Female BDF mice of 5-week age were used as test animals (eight head for each group).

[7] = cited from earlier work

NC1CCCC(O)C1N.O=S(=O)([O-])[O-].[Pt+2] (stereo not drawn) [Compound No. 2, Cis-sulfato-(1/2,3)-2,3-diamino-1-cyclohexanolplatinum(II)]
IC50 (L1210 cells [1]): 1.7 µM
Solubility [2]: > 20.0 mg/mL
Life-prolonging Rate (L1210 cells [3]; 7.5 μmol/Kg × 3, i.p.): 136%
Life-prolonging Rate (L1210 cells [3]; 15.0 μmol/Kg × 3, i.p.): 134%
Life-prolonging Rate (L1210 cells [3]; 30.0 μmol/Kg × 3, i.p.): 151%
Life-prolonging Rate (Sarcoma-180 cells; 4.0 mg/Kg × 1, i.p.): 295%
Life-prolonging Rate (Sarcoma-180 cells; 8.0 mg/Kg × 1, i.p.): 532%
Life-prolonging Rate (Sarcoma-180 cells; 16.0 mg/Kg × 1, i.p.): 534%
IC50 [4]: 3.2 µM
Degree of Resistance [4]: 1.9
Tumor-growth Inhibition Rate (Colon 38 cells [5]; 20.0 μmol/Kg × 3, i.p.): 47%
Tumor-growth Inhibition Rate (Colon 38 cells [5]; 30.0 μmol/Kg × 3, i.p.): 78%
Tumor-growth Inhibition Rate (Colon 38 cells [5]; 45.0 μmol/Kg × 3, i.p.): 97%
Tumor-growth Inhibition Rate (Colon 38 cells [6]; 2 mg/kg × 6, i.v.): 22%
Tumor-growth Inhibition Rate (Colon 38 cells [6]; 4 mg/kg × 6, i.v.): 41%
Tumor-growth Inhibition Rate (Colon 38 cells [6]; 8 mg/kg × 6, i.v.): 90%
Tumor-growth Inhibition Rate (Colon 38 cells [6]; 16 mg/kg × 6, i.v.): toxic

O=C1C[O][Pt]2([NH]C3CCCC(O)C3[NH]2)[O]1 (stereo not drawn) [Compound No. 3, Cis-glycolato-(1/2,3)-2,3-diamino-1-cyclohexanolplatinum(II)]
IC50 (L1210 cells [1]): 1.3 µM
Life-prolonging Rate (L1210 cells [3]; 7.5 μmol/Kg × 3, i.p.): 116%
Life-prolonging Rate (L1210 cells [3]; 15.0 μmol/Kg × 3, i.p.): 122%
Life-prolonging Rate (L1210 cells [3]; 30.0 μmol/Kg × 3, i.p.): 147%
Life-prolonging Rate (Sarcoma-180 cells; 4.0 mg/Kg × 1, i.p.): 212%
Life-prolonging Rate (Sarcoma-180 cells; 8.0 mg/Kg × 1, i.p.): 182%
Life-prolonging Rate (Sarcoma-180 cells; 16.0 mg/Kg × 1, i.p.): 252%
IC50 [4]: 2.5 µM
Degree of Resistance [4]: 1.9
Tumor-growth Inhibition Rate (Colon 38 cells [5]; 20.0 μmol/Kg × 3, i.p.): 70%
Tumor-growth Inhibition Rate (Colon 38 cells [5]; 30.0 μmol/Kg × 3, i.p.): 72%
Tumor-growth Inhibition Rate (Colon 38 cells [5]; 45.0 μmol/Kg × 3, i.p.): 96%

NC1CCCC(N)C1.O=C1[O][Pt][O]C1=O (stereo not drawn) [Compound No. 4, Cis-oxalato-1,3-diaminocyclohexaneplatinum(II)]
IC50 (L1210 cells [1]): 2.4 µM
Life-prolonging Rate (L1210 cells [3]; 7.5 μmol/Kg × 3, i.p.): 127%
Life-prolonging Rate (L1210 cells [3]; 15.0 μmol/Kg × 3, i.p.): 222%
Life-prolonging Rate (L1210 cells [3]; 30.0 μmol/Kg × 3, i.p.): 245%
Life-prolonging Rate (Sarcoma-180 cells; 4.0 mg/Kg × 1, i.p.): 248%
Life-prolonging Rate (Sarcoma-180 cells; 8.0 mg/Kg × 1, i.p.): 258%
Life-prolonging Rate (Sarcoma-180 cells; 16.0 mg/Kg × 1, i.p.): 364%
IC50 [4]: 5 µM
Degree of Resistance [4]: 2.1
Tumor-growth Inhibition Rate (Colon 38 cells [5]; 20.0 μmol/Kg × 3, i.p.): 54%
Tumor-growth Inhibition Rate (Colon 38 cells [5]; 30.0 μmol/Kg × 3, i.p.): 77%
Tumor-growth Inhibition Rate (Colon 38 cells [5]; 45.0 μmol/Kg × 3, i.p.): 88%

NC1CCCC(O)C1N.O=S1(=O)[O][Pt][O]1 (single isomer, unassigned; (-)) [Compound No. 9]
Tumor-growth Inhibition Rate (Colon 38 cells [6]; 2 mg/kg × 6, i.v.): 40%
Tumor-growth Inhibition Rate (Colon 38 cells [6]; 4 mg/kg × 6, i.v.): 88%
Tumor-growth Inhibition Rate (Colon 38 cells [6]; 8 mg/kg × 6, i.v.): 88%
Tumor-growth Inhibition Rate (Colon 38 cells [6]; 16 mg/kg × 6, i.v.): toxic

O=C1[O][Pt]2([NH]C3CCCC(O)C3[NH]2)[O]C1=O (stereo not drawn) [Compound No. 1, Cis-oxalato-(1/2,3)-2,3-diamino-1-cyclohexanolplatinum(II)]
IC50 (L1210 cells [1]): 3.5 µM
Life-prolonging Rate (L1210 cells [3]; 7.5 μmol/Kg × 3, i.p.): 115%
Life-prolonging Rate (L1210 cells [3]; 15.0 μmol/Kg × 3, i.p.): 115%
Life-prolonging Rate (L1210 cells [3]; 30.0 μmol/Kg × 3, i.p.): 132%
Life-prolonging Rate (Sarcoma-180 cells; 4.0 mg/Kg × 1, i.p.): 189%
Life-prolonging Rate (Sarcoma-180 cells; 8.0 mg/Kg × 1, i.p.): 218%
Life-prolonging Rate (Sarcoma-180 cells; 16.0 mg/Kg × 1, i.p.): 266%
IC50 [4]: 6.6 µM
Degree of Resistance [4]: 1.9
Tumor-growth Inhibition Rate (Colon 38 cells [5]; 20.0 μmol/Kg × 3, i.p.): 24%
Tumor-growth Inhibition Rate (Colon 38 cells [5]; 30.0 μmol/Kg × 3, i.p.): 16%
Tumor-growth Inhibition Rate (Colon 38 cells [5]; 45.0 μmol/Kg × 3, i.p.): 45%

NC1CCCC(N)C1.O=C1[O][Pt][O]C(=O)C12CCC2 [Compound No. 6, Cis-cyclobutane-1,1-dicarboxylato-1,3-diaminocyclohexaneplatinum(II)]
Life-prolonging Rate (L1210 cells [3]; 30.0 μmol/Kg × 3, i.p.): 98%
Life-prolonging Rate (L1210 cells [3]; 60.0 μmol/Kg × 3, i.p.): 104%
Life-prolonging Rate (Sarcoma-180 cells; 16.0 mg/Kg × 1, i.p.): 126%
Life-prolonging Rate (Sarcoma-180 cells; 32.0 mg/Kg × 1, i.p.): 106%

O=S1(=O)[O][Pt]2([NH]C3CC([NH]2)C(O)C(O)C3O)[O]1 (stereo not drawn) [Compound No. 7, Cis-sulfato-2-deoxystreptamineplatinum(II)]
Life-prolonging Rate (L1210 cells [3]; 15.0 μmol/Kg × 3, i.p.): 102%
Life-prolonging Rate (L1210 cells [3]; 30.0 μmol/Kg × 3, i.p.): 109%
Life-prolonging Rate (L1210 cells [3]; 60.0 μmol/Kg × 3, i.p.): 119%
Life-prolonging Rate (Sarcoma-180 cells; 8.0 mg/Kg × 1, i.p.): 126%
Life-prolonging Rate (Sarcoma-180 cells; 16.0 mg/Kg × 1, i.p.): 120%
Life-prolonging Rate (Sarcoma-180 cells; 32.0 mg/Kg × 1, i.p.): 241%

O=S1(=O)[O][Pt]2([NH]C3CCCC(C3)[NH]2)[O]1 [Compound No. 5, Cis-sulfato-1,3-diaminocyclohexaneplatinum(II)]
IC50 (L1210 cells [1]): 3.1 µM
Life-prolonging Rate (L1210 cells [3]; 7.5 μmol/Kg × 3, i.p.): 121%
Life-prolonging Rate (L1210 cells [3]; 15.0 μmol/Kg × 3, i.p.): 189%
Life-prolonging Rate (L1210 cells [3]; 30.0 μmol/Kg × 3, i.p.): 155%
Life-prolonging Rate (Sarcoma-180 cells; 4.0 mg/Kg × 1, i.p.): 202%
Life-prolonging Rate (Sarcoma-180 cells; 8.0 mg/Kg × 1, i.p.): 187%
Life-prolonging Rate (Sarcoma-180 cells; 16.0 mg/Kg × 1, i.p.): 236%
IC50 [4]: 7.9 µM
Degree of Resistance [4]: 2.5
Tumor-growth Inhibition Rate (Colon 38 cells [5]; 20.0 μmol/Kg × 3, i.p.): 36%
Tumor-growth Inhibition Rate (Colon 38 cells [5]; 30.0 μmol/Kg × 3, i.p.): 56%
Tumor-growth Inhibition Rate (Colon 38 cells [5]; 45.0 μmol/Kg × 3, i.p.): 56%

N.N.[Cl][Pt][Cl] [Cisplatin, cis-dichlorodiamineplatinum(II), reference compound]
anti-tumor activity (in words) ([7]; Nature, 222, 385 (1969)): high anti-tumor activity
side effects (in words) ([7]; clinical use): severe side effects, such as toxicity to the kidney, nausea, emesis and bradyacusia
IC50 (L1210 cells [1]): 1 µM
IC50 [4]: 10.5 µM
Degree of Resistance [4]: 10.5
Tumor-growth Inhibition Rate (Colon 38 cells [6]; 1 mg/kg × 6, i.v.): 19%
Tumor-growth Inhibition Rate (Colon 38 cells [6]; 2 mg/kg × 6, i.v.): 58%
Tumor-growth Inhibition Rate (Colon 38 cells [6]; 4 mg/kg × 6, i.v.): 84%
Tumor-growth Inhibition Rate (Colon 38 cells [6]; 8 mg/kg × 6, i.v.): toxic

NC1CCCC(O)C1N.O=S1(=O)[O][Pt][O]1 (single isomer, unassigned; (+)) [Compound No. 8, (+)-Cis-sulfato-(1/2,3)-2,3-diaminocyclohexanol-platinum(II)]
Tumor-growth Inhibition Rate (Colon 38 cells [6]; 2 mg/kg × 6, i.v.): 34%
Tumor-growth Inhibition Rate (Colon 38 cells [6]; 4 mg/kg × 6, i.v.): 35%
Tumor-growth Inhibition Rate (Colon 38 cells [6]; 8 mg/kg × 6, i.v.): 61%
Tumor-growth Inhibition Rate (Colon 38 cells [6]; 16 mg/kg × 6, i.v.): 91%
